Assay results as given in patent publication US20250282819A1, “MITOCHONDRIA-[…] PEPTIDE THAT CAN BE […] DELIVERED AT NANOMOLAR CONCENTRATION, AND USE THEREOF” (CAMP THERAPEUTICS INC., priority 2021, published 2025).
Entries after “also recorded” stand apart in the source; their conditions may differ. Where a SMILES comes first, the peptide text is derived from it.

Tests used:
Type in all cases: cell-based
[1] = Membrane potential restoring ability, JC-1, comparison of SS-31 and CMP3013; settings: 1 mM H2O2; 10 or 30 nM
Method: For comparison of efficacy of the two peptides on restoration of mitochondrial function, SS-31 and CMP3013 were tested for their effect on membrane potential. The change in mitochondrial membrane potential was measured as a fluorescence ratio of JC-1 according to the method described in Experimental Example 8, and 1 mM of H2O2 was used as a mitochondrial damaging agent.

HeLa cells [2] = system: HeLa cells
Method: Cell-penetrating ability was evaluated using the fluorescently-labeled versions of the dimeric bundle peptides synthesized in Example 3, and measured as EC50 values according to the method described in Experimental Example 3.
1×10^5 HeLa cells were seeded into a 24-well plate. After 24 hours, the peptide was added to the cells and further incubation was performed for 3 hours. The incubated cells were harvested, washed with PBS, suspended in PBS, and then analyzed by fluorescence-activated cell sorting (FACS; BD Accuri, USA). The cells whose fluorescence intensity exceeds the maximum intensity of untreated cells were classified as fluorescence-positive cells.

HeLa cells [3] = test: Co-localization with endosome, lysosome and cardiolipin (NAO) markers
Method: Next, to investigate whether mitochondrial damage affects the amount of peptide present in lysosomes, cardiolipin-specific targeting was investigated using NAO in the presence or absence of CCCP.
For microscopic observation, HeLa cells were cultured in glass-bottom dishes (SPL, 200350, Korea). The cells were then treated with peptides for 3 hours and stained with MitoTracker™ (Thermo Fisher Scientific, A1372, USA; 100 nM, 1 hr), nonyl acridine orange (NAO; Thermo Fisher Scientific, A1372; 100 nM, 1 hr), Hoechst 33342 ([…], 20 min), CellLight™ early endosomes-GFP (Thermo Fisher Scientific, C10586; […], 16 hr), and/or LysoTracker™ (Thermo Fisher Scientific, L7525; 50 nM, 30 min). The cells were then rinsed with PBS and HBSS was added thereto. Images of the stained cells were obtained using a microscope (Zeiss LSM 880 and ELYRA PS.1). To generate ultra-high resolution images, a structured illumination process was performed with ZEN Black software. Pearson r values were calculated by using ImageJ software.

HeLa cells [4] = test: Preferential binding to CCCP-damaged mitochondria, confocal microscopy; settings: 100 nM 3 hours, 20 μM CCCP
Method: To damage mitochondria, treatment with carbonyl cyanide m-chlorophenyl hydrazone (CCCP) at a concentration of 20 μM was performed for 30 minutes.
For microscopic observation, HeLa cells were cultured in glass-bottom dishes (SPL, 200350, Korea). The cells were then treated with peptides for 3 hours and stained with MitoTracker™ (Thermo Fisher Scientific, A1372, USA; 100 nM, 1 hr), nonyl acridine orange (NAO; Thermo Fisher Scientific, A1372; 100 nM, 1 hr), Hoechst 33342 (1 g/mL, 20 min), CellLight™ early endosomes-GFP (Thermo Fisher Scientific, C10586; 2 L/10,000 cells, 16 hr), and/or LysoTracker™ (Thermo Fisher Scientific, L7525; 50 nM, 30 min). The cells were then rinsed with PBS and HBSS was added thereto. Images of the stained cells were obtained using a microscope (Zeiss LSM 880 and ELYRA PS.1). To generate ultra-high resolution images, a structured illumination process was performed with ZEN Black software. Pearson r values were calculated by using ImageJ software.

HeLa cells [5] = test: Mitochondria-targeting ability by mitochondrial fractionation; settings: EC50 concentration
Method: To determine at what rate the dimeric bundle peptides according to the present disclosure target mitochondria, mitochondrial fractionation was performed according to the method described in Experimental Example 4. […] Then, the cells were harvested and fractionation was performed.
Cell-penetrating ability was performed according to the method described in Experimental Example 3, and mitochondria-targeting ability was assessed by mitochondrial fractionation according to the method described in Experimental Example 4. In addition to SS-31 as a conventional peptide, a mitochondrial-penetrating peptide of Kelly's group (MPP1a; see Horton, Kristin L et al. “Mitochondria-penetrating peptides.” Chemistry & biology vol. 15, 4 (2008): 375-82) was used as an additional comparison group. The amino acid sequence of MPP1a is as follows: X(dR)XKX(dR)XK (where X is cyclohexylalanine, dR is D-arginine, and K is lysine).
Intracellular distribution of peptides was detected using the mitochondria isolation method. […] The cells were harvested, washed with cold PBS, and suspended in cold IB (30 mM Tris-HCl, pH 7.4; 225 mM mannitol; 75 mM sucrose; and 0.1 mM EGTA). […] Lysed cells were monitored under a light microscope. […] The fluorescence intensity of each fraction was measured by using a microplate reader [TECAN, Switzerland; excitation (Ex)/emission (Em)=510/570 nm].

HeLa cells [6] = test: Cristae protecting ability by TEM; settings: 50 or 100 nM 2 hours, then 0.5 mM H2O2 2 hours
From the text: In order to determine the mode of action of the peptide according to the disclosure, attenuation of cristae number in mitochondria was examined in relation to impaired mitochondrial function caused by H2O2 treatment. In other words, it was investigated whether promotion of normal mitochondrial function caused by CMP3013 was related to preservation of cristae structure. To evaluate this protective effect, transmission electron microscopy (TEM) images were used to observe changes in the shape and number of cristae in damaged HeLa cells in the presence or absence of CMP3013.
1.8×10^6 HeLa cells were fixed with modified Karnovsky fixative [2% paraformaldehyde and 2% glutaraldehyde dissolved in […]] at 4° C. for 3 hours. A sample was washed three times with […] sodium cacodylate buffer (pH 7.2) at 4° C. for 10 minutes, and then post-fixed at 4° C. for 2 hours with 1% osmium tetroxide dissolved in […] sodium cacodylate buffer (pH 7.2). The sample was then washed twice briefly with distilled water. Subsequently, the sample was then en bloc stained with 0.5% uranyl acetate at 4° C. overnight. […]

CC(=O)N[C@@H](CC1CCCCC1)C(=O)N[C@H]1CSSC[C@@H](C(=O)N[C@@H](CCCNC(=N)N)C(N)=O)NC(=O)[C@H](CC2CCCCC2)NC(=O)[C@H](CCCNC(=N)N)NC(=O)[C@H](CCCNC(=N)N)NC(=O)[C@H](CC2CCCCC2)NC(=O)[C@H](CC(C)C)NC(=O)[C@H](CCCNC(=N)N)NC(=O)[C@@H](NC(=O)[C@H](CC2CCCCC2)NC(C)=O)CSSC[C@@H](C(=O)N[C@@H](CCCNC(=N)N)C(N)=O)NC(=O)[C@H](CC2CCCCC2)NC(=O)[C@H](CCCNC(=N)N)NC(=O)[C@H](CCCNC(=N)N)NC(=O)[C@H](CC2CCCCC2)NC(=O)[C@H](CC(C)C)NC(=O)[C@H](CCCNC(=N)N)NC1=O [CMP3013] (HELM PEPTIDE1{[ac].[Cha].C.R.L.[Cha].R.R.[Cha].C.R.[am]}|PEPTIDE2{[ac].[Cha].C.R.L.[Cha].R.R.[Cha].C.R.[am]}$PEPTIDE1,PEPTIDE2,3:R3-10:R3|PEPTIDE1,PEPTIDE2,10:R3-3:R3$$$V2.0)
mitochondrial membrane potential (Δψm), JC-1 ratio [1]: increased mitochondrial membrane potential | improvement in cell penetration rate as compared with SS-31 (HeLa cells [2]): approximately 100 fold | level of EC50 value (cell-penetrating ability) (HeLa cells [2]; comparison of CMP3013, LR10, MPP1a, SS-31): lowest EC50 value | proportion of peptide present in lysosomes (Pearson r, CMP3013-Lysotracker) (HeLa cells [3]; absence of CCCP): 0.30 | co-localization of CMP3013 with cardiolipin (NAO), Pearson r (HeLa cells [3]; not treated with CCCP): 0.08 | proportion of peptide present in lysosomes (Pearson r, CMP3013-Lysotracker) (HeLa cells [3]; presence of CCCP): 0.29 | co-localization of CMP3013 with cardiolipin (NAO), Pearson r (HeLa cells [3]; treated with CCCP): 0.43 | targeting of damaged mitochondria (HeLa cells [4]): moves into damaged mitochondria; also recorded: preferentially target damaged mitochondria | mitochondrial/cytoplasmic abundance ratio (M/C ratio) (HeLa cells [5]): 4.1 | rank of percentage in the mitochondrial fraction (HeLa cells [5]; 3 hours): highest percentage in the mitochondrial fraction | number of cristae structures (TEM) (HeLa cells [6]): same number of normal cristae structures as in the control group with no treatment
